In PubChem BioAssay (NCI):
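Method: 48-hour compound exposure of cells in 96-well plates, five concentrations, linear interpolation of endpoints. At the TGI there is no net growth.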

Assays:
Assay in all cases: inhibition of tumour cell growth, NCI panel, 48 h
HS 578T breast = tested on: HS 578T breast
SK-MEL-28 melanoma = tested on: SK-MEL-28 melanoma
OVCAR-5 ovarian = tested on: OVCAR-5 ovarian
UACC-257 melanoma = tested on: UACC-257 melanoma
NCI/ADR-RES ovarian = tested on: NCI/ADR-RES ovarian
SNB-19 CNS = tested on: SNB-19 CNS
NCI-H226 lung = tested on: NCI-H226 lung
U251 CNS = tested on: U251 CNS
ACHN renal = tested on: ACHN renal
PC-3 prostate = tested on: PC-3 prostate
RPMI-8226 leukemia = tested on: RPMI-8226 leukemia
T-47D breast = tested on: T-47D breast
SW-620 colon = tested on: SW-620 colon
786-0 renal = tested on: 786-0 renal
SN12C renal = tested on: SN12C renal
SF-268 CNS = tested on: SF-268 CNS
RXF 393 renal = tested on: RXF 393 renal
M14 melanoma = tested on: M14 melanoma
UO-31 renal = tested on: UO-31 renal
OVCAR-3 ovarian = tested on: OVCAR-3 ovarian
SF-295 CNS = tested on: SF-295 CNS
HCT-116 colon = tested on: HCT-116 colon
A498 renal = tested on: A498 renal
MOLT-4 leukemia = tested on: MOLT-4 leukemia
MDA-N = tested on: MDA-N
UACC-62 melanoma = tested on: UACC-62 melanoma
MCF7 breast = tested on: MCF7 breast
K-562 leukemia = tested on: K-562 leukemia
CAKI-1 renal = tested on: CAKI-1 renal
KM12 colon = tested on: KM12 colon
HOP-62 NSCLC = tested on: HOP-62 NSCLC
CCRF-CEM leukemia = tested on: CCRF-CEM leukemia
COLO 205 colon = tested on: COLO 205 colon
IGROV1 ovarian = tested on: IGROV1 ovarian
TK-10 renal = tested on: TK-10 renal
SF-539 CNS = tested on: SF-539 CNS
SR leukemia = tested on: SR leukemia
A549 NSCLC = tested on: A549 NSCLC
SK-MEL-2 melanoma = tested on: SK-MEL-2 melanoma
MDA-MB-435 = tested on: MDA-MB-435
HCT-15 colon = tested on: HCT-15 colon
NCI-H460 lung = tested on: NCI-H460 lung
OVCAR-8 ovarian = tested on: OVCAR-8 ovarian
MDA-MB-231 breast = tested on: MDA-MB-231 breast
SK-MEL-5 melanoma = tested on: SK-MEL-5 melanoma
EKVX NSCLC = tested on: EKVX NSCLC
BT-549 breast = tested on: BT-549 breast
HT29 colon = tested on: HT29 colon
SNB-75 CNS = tested on: SNB-75 CNS
NCI-H23 lung = tested on: NCI-H23 lung
DU-145 prostate = tested on: DU-145 prostate
HL-60(TB) leukemia = tested on: HL-60(TB) leukemia
LOX IMVI melanoma = tested on: LOX IMVI melanoma
MALME-3M melanoma = tested on: MALME-3M melanoma
OVCAR-4 ovarian = tested on: OVCAR-4 ovarian
HOP-92 NSCLC = tested on: HOP-92 NSCLC
SK-OV-3 ovarian = tested on: SK-OV-3 ovarian
NCI-H522 lung = tested on: NCI-H522 lung
HCC-2998 colon = tested on: HCC-2998 colon

With NNc1nncc2[nH]cnc12 the TGI (HS 578T breast) was > 100 µM, the TGI (SK-MEL-28 melanoma) was > 100 µM and the TGI (OVCAR-5 ovarian) was > 100 µM. The TGI (UACC-257 melanoma) was > 100 µM, the TGI (NCI/ADR-RES ovarian) was > 100 µM and the TGI (SNB-19 CNS) was > 100 µM. For the same compound, the TGI (NCI-H226 lung) was > 100 µM, the TGI (U251 CNS) was > 100 µM and the TGI (ACHN renal) was > 100 µM. For the same compound, the TGI (PC-3 prostate) was > 100 µM, the TGI (RPMI-8226 leukemia) was > 100 µM and the TGI (T-47D breast) was > 100 µM. The TGI (SW-620 colon) was > 100 µM, the TGI (786-0 renal) was > 100 µM and the TGI (SN12C renal) was > 100 µM. The TGI (SF-268 CNS) was > 100 µM, the TGI (RXF 393 renal) was > 100 µM and the TGI (M14 melanoma) was > 100 µM. For the same compound, the TGI (UO-31 renal) was > 100 µM, the TGI (OVCAR-3 ovarian) was > 100 µM and the TGI (SF-295 CNS) was > 100 µM. The TGI (HCT-116 colon) was > 100 µM, the TGI (A498 renal) was > 100 µM and the TGI (MOLT-4 leukemia) was > 100 µM. The TGI (MDA-N) was > 100 µM, the TGI (UACC-62 melanoma) was > 100 µM and the TGI (MCF7 breast) was > 100 µM. For the same compound, the TGI (K-562 leukemia) was > 100 µM, the TGI (CAKI-1 renal) was > 100 µM and the TGI (KM12 colon) was > 100 µM. The TGI (HOP-62 NSCLC) was > 100 µM, the TGI (CCRF-CEM leukemia) was > 100 µM and the TGI (COLO 205 colon) was > 100 µM. For the same compound, the TGI (IGROV1 ovarian) was > 100 µM, the TGI (TK-10 renal) was > 100 µM and the TGI (SF-539 CNS) was > 100 µM. The TGI (SR leukemia) was > 100 µM, the TGI (A549 NSCLC) was > 100 µM and the TGI (SK-MEL-2 melanoma) was > 100 µM. The TGI (MDA-MB-435) was > 100 µM, the TGI (HCT-15 colon) was > 100 µM and the TGI (NCI-H460 lung) was > 100 µM. For the same compound, the TGI (OVCAR-8 ovarian) was > 100 µM, the TGI (MDA-MB-231 breast) was > 100 µM and the TGI (SK-MEL-5 melanoma) was > 100 µM. The TGI (EKVX NSCLC) was > 100 µM, the TGI (BT-549 breast) was > 100 µM and the TGI (HT29 colon) was > 100 µM. The TGI (SNB-75 CNS) was > 100 µM, the TGI (NCI-H23 lung) was > 100 µM and the TGI (DU-145 prostate) was > 100 µM. The TGI (HL-60(TB) leukemia) was > 100 µM.

For CC12CC3OC(=O)C1COC14OC5(C2C1=O)C(O)(CCC1C4CC2OC24CC=CC(=O)C14C)C(=O)OC35C (stereo unspecified), the TGI (HS 578T breast) was > 100 µM, the TGI (SK-MEL-28 melanoma) was 24.7 µM and the TGI (OVCAR-5 ovarian) was 34.9 µM. For the same compound, the TGI (UACC-257 melanoma) was 39.4 µM, the TGI (NCI/ADR-RES ovarian) was > 100 µM and the TGI (SNB-19 CNS) was 44.9 µM. For the same compound, the TGI (U251 CNS) was 35.9 µM, the TGI (ACHN renal) was 30.8 µM and the TGI (PC-3 prostate) was 40.1 µM. It also gave a TGI (RPMI-8226 leukemia) of 71.4 µM, a TGI (T-47D breast) of 37.3 µM and a TGI (SW-620 colon) of 34.5 µM. The TGI (786-0 renal) was 28.7 µM, the TGI (SN12C renal) was 60.1 µM and the TGI (SF-268 CNS) was > 100 µM. The TGI (RXF 393 renal) was 13.4 µM, the TGI (M14 melanoma) was 44 µM and the TGI (UO-31 renal) was 31.1 µM. It also gave a TGI (LOX IMVI melanoma) of 29.5 µM, a TGI (OVCAR-3 ovarian) of 28.7 µM and a TGI (SF-295 CNS) of 69.5 µM. For the same compound, the TGI (HCT-116 colon) was 29.2 µM, the TGI (A498 renal) was 43.3 µM and the TGI (MOLT-4 leukemia) was 66.9 µM. The TGI (MDA-N) was 29.4 µM, the TGI (UACC-62 melanoma) was 27.6 µM and the TGI (MCF7 breast) was 40.9 µM. The TGI (K-562 leukemia) was > 100 µM, the TGI (MALME-3M melanoma) was 52.8 µM and the TGI (CAKI-1 renal) was 25.8 µM. The TGI (KM12 colon) was 36.5 µM, the TGI (HOP-62 NSCLC) was 39.4 µM and the TGI (CCRF-CEM leukemia) was 24.1 µM. The TGI (COLO 205 colon) was 22.1 µM, the TGI (IGROV1 ovarian) was 42.8 µM and the TGI (TK-10 renal) was 30.8 µM. The TGI (SF-539 CNS) was 28.4 µM, the TGI (SR leukemia) was 48.3 µM and the TGI (A549 NSCLC) was > 100 µM. The TGI (OVCAR-4 ovarian) was > 100 µM, the TGI (SK-MEL-2 melanoma) was 28.1 µM and the TGI (MDA-MB-435) was 32.9 µM. For the same compound, the TGI (HCT-15 colon) was 37.7 µM, the TGI (HOP-92 NSCLC) was 68.1 µM and the TGI (NCI-H460 lung) was > 100 µM. The TGI (OVCAR-8 ovarian) was > 100 µM, the TGI (MDA-MB-231 breast) was 37 µM and the TGI (SK-MEL-5 melanoma) was 11.5 µM. The TGI (EKVX NSCLC) was > 100 µM, the TGI (SK-OV-3 ovarian) was > 100 µM and the TGI (BT-549 breast) was 9.66 µM. The TGI (HT29 colon) was > 100 µM, the TGI (NCI-H522 lung) was 19.8 µM and the TGI (HCC-2998 colon) was 32.8 µM. The TGI (SNB-75 CNS) was > 100 µM, the TGI (NCI-H23 lung) was 33.1 µM and the TGI (DU-145 prostate) was 27.7 µM. It also gave a TGI (HL-60(TB) leukemia) of 28.7 µM.

With COc1ccc(/C=C2\CCS(=O)(=O)c3ccccc3C2=O)cc1OC the TGI (HS 578T breast) was > 100 µM, the TGI (SK-MEL-28 melanoma) was > 100 µM and the TGI (OVCAR-5 ovarian) was > 100 µM. The TGI (UACC-257 melanoma) was > 100 µM, the TGI (NCI/ADR-RES ovarian) was 81.6 µM and the TGI (SNB-19 CNS) was > 100 µM. The TGI (NCI-H226 lung) was > 100 µM, the TGI (U251 CNS) was > 100 µM and the TGI (ACHN renal) was > 100 µM. The TGI (PC-3 prostate) was > 100 µM, the TGI (RPMI-8226 leukemia) was > 100 µM and the TGI (T-47D breast) was > 100 µM. The TGI (SW-620 colon) was > 100 µM, the TGI (786-0 renal) was > 100 µM and the TGI (SN12C renal) was > 100 µM. The TGI (SF-268 CNS) was > 100 µM, the TGI (RXF 393 renal) was > 100 µM and the TGI (M14 melanoma) was > 100 µM. For the same compound, the TGI (UO-31 renal) was > 100 µM, the TGI (LOX IMVI melanoma) was 43.8 µM and the TGI (OVCAR-3 ovarian) was > 100 µM. For the same compound, the TGI (SF-295 CNS) was > 100 µM, the TGI (HCT-116 colon) was > 100 µM and the TGI (A498 renal) was 73.7 µM. For the same compound, the TGI (MOLT-4 leukemia) was > 100 µM, the TGI (MDA-N) was > 100 µM and the TGI (UACC-62 melanoma) was 76.6 µM. For the same compound, the TGI (MCF7 breast) was > 100 µM, the TGI (K-562 leukemia) was > 100 µM and the TGI (CAKI-1 renal) was > 100 µM. The TGI (KM12 colon) was > 100 µM, the TGI (HOP-62 NSCLC) was > 100 µM and the TGI (CCRF-CEM leukemia) was > 100 µM. The TGI (COLO 205 colon) was > 100 µM, the TGI (IGROV1 ovarian) was 72.1 µM and the TGI (TK-10 renal) was > 100 µM. The TGI (SF-539 CNS) was > 100 µM, the TGI (SR leukemia) was 89.1 µM and the TGI (A549 NSCLC) was > 100 µM. For the same compound, the TGI (OVCAR-4 ovarian) was 71.5 µM, the TGI (SK-MEL-2 melanoma) was > 100 µM and the TGI (MDA-MB-435) was > 100 µM. The TGI (HCT-15 colon) was 50.4 µM, the TGI (HOP-92 NSCLC) was > 100 µM and the TGI (NCI-H460 lung) was 47 µM. The TGI (OVCAR-8 ovarian) was 43.5 µM, the TGI (MDA-MB-231 breast) was > 100 µM and the TGI (EKVX NSCLC) was > 100 µM. For the same compound, the TGI (SK-OV-3 ovarian) was > 100 µM, the TGI (BT-549 breast) was 76.2 µM and the TGI (HT29 colon) was > 100 µM. For the same compound, the TGI (HCC-2998 colon) was 44.1 µM, the TGI (SNB-75 CNS) was 98.4 µM and the TGI (NCI-H23 lung) was > 100 µM. For the same compound, the TGI (DU-145 prostate) was > 100 µM and the TGI (HL-60(TB) leukemia) was 70 µM.
